# Experimental data taken from publication PMC6792352, “Limited Chemical Structural Diversity Found to Modulate Thyroid Hormone Receptor in the Tox21 Chemical Library” (Environmental Health Perspectives, 2019).
# Counter-ions that a name gives are not always drawn.
# Test: in vitro
# Settings: rat, gh3-tre-luc cells, AC50 (uM) modified / 1000
row,Compound,CC50 at 24 h
1,CSc1nc(NC(C)C)nc(NC(C)C)n1 [Prometryn],> 90 µM
2,Cc1ccc(C(C)C)c(O)c1 [Thymol],> 90 µM
3,C[N+]1(CC2COC(c3ccccc3)(c3ccccc3)O2)CCCCC1 (stereo not drawn) [Anacolin],> 50 µM
4,CC(=O)c1ccc(C)cc1 [p-Methylacetophenone],> 90 µM
5,CC(=O)c1nccs1 [2-Acetylthiazole],> 90 µM
6,COc1cc(S(=O)(=O)O)c(C)cc1N=Nc1c(O)ccc2cc(S(=O)(=O)O)ccc12 [Allura Red C.I.16035],37.7 µM
7,Cn1c([N+](=O)[O-])cnc1COC(N)=O [Ronidazole],> 50 µM
8,CC(CN1c2ccccc2Sc2cccnc21)N(C)C (stereo not drawn) [Isothipendyl hydrochloride],28 µM
9,O=C(O)c1cc(O)c(O)c(O)c1 [Gallic acid],90.1 µM
10,C[C@@H]1CN([C@H]2CC[C@](C#N)(c3ccc(F)cc3)CC2)CC[C@]1(C(=O)O)c1ccccc1 [Levocabastine hydrochloride],> 20 µM
11,CCOC(=O)C(C)Oc1ccc(Oc2nc3ccc(Cl)cc3o2)cc1 (stereo not drawn) [Fenoxaprop-ethyl],> 90 µM
12,CCCCC(CC)CN (stereo not drawn) [2-Ethylhexylamine],> 90 µM
13,CC(C)(C)c1ccc2c(S(=O)(=O)O)c(C(C)(C)C)ccc2c1 [Sodium dibunate],> 50 µM
14,CCCCCCCCCCCCCCCCCl [1-Chlorohexadecane],> 20 µM
15,O=C(O)/C=C/C(=O)O [Fumaric acid],> 100 µM
16,Cc1cccc2sc(N)nc12 [2-Amino-4-methylbenzothiazole],> 90 µM
17,O=C1CCC(=O)N1CO [N-Hydroxymethylsuccinimide],> 50 µM
18,COc1cc2nc(N(C)CCCNC(=O)C3CCCO3)nc(N)c2cc1OC (stereo not drawn) [Alfuzosin hydrochloride],> 20 µM
19,CC(C)(S)[C@@H](N)C(=O)O [D-Penicillamine],> 50 µM
20,c1cnccn1 [Pyrazine],> 90 µM
21,C=CCN1C[C@H](C(=O)N(CCCN(C)C)C(=O)NCC)C[C@@H]2c3cccc4[nH]cc(c34)C[C@H]21 [Cabergoline],5.04 µM
22,CCOC(=O)CC(CC(=O)OCC)(OC(C)=O)C(=O)OCC [Acetyltriethyl citrate],> 90 µM
23,CCCCCC=O [Hexanal],> 100 µM
24,Fc1ccc([C@@]2(Cn3cncn3)O[C@@H]2c2ccccc2Cl)cc1 (racemic) [Epoxiconazole],> 90 µM
25,CCC/C=C(/C=O)CC [2-Ethyl-2-hexenal],> 90 µM

row,Compound,CC50 at 24 h
1,CC(C)(S)C(=O)N[C@@H](CS)C(=O)O [Bucillamine],> 50 µM
2,CC(C)C(C)(C)C(C)(C)C(C)(C)S [tert-Dodecanethiol],> 90 µM
3,Cc1[nH]cnc1CN1CCc2c(c3ccccc3n2C)C1=O [Alosetron hydrochloride],> 50 µM
4,COC1=C(OC)C(=O)C(C/C=C(\C)CC/C=C(\C)CC/C=C(\C)CC/C=C(\C)CC/C=C(\C)CC/C=C(\C)CC/C=C(\C)CC/C=C(\C)CC/C=C(\C)CCC=C(C)C)=C(C)C1=O [Ubidecarenone],> 50 µM
5,N[C@H]1C(O)O[C@H](CO)[C@@H](O)[C@@H]1O (stereo partly drawn) [Glucosamine hydrochloride],> 50 µM
6,O=C(OCCOCCOCCOC(=O)c1ccccc1)c1ccccc1 [Triethylene glycol dibenzoate],> 90 µM
7,C[C@@H]1CN(c2c(F)c(F)c3c(=O)c(C(=O)O)cn(C4CC4)c3c2F)C[C@H](C)N1 [Orbifloxacin],> 50 µM
8,CO[C@H]1[C@@H](O)C[C@H](O[C@H]2[C@@H](O)C[C@H](O[C@H]3[C@@H](O)C[C@H](O[C@H]4CC[C@@]5(C)[C@H](CC[C@@H]6[C@@H]5C[C@@H](O)[C@]5(C)[C@@H](C7=CC(=O)OC7)CC[C@]65O)C4)O[C@@H]3C)O[C@@H]2C)O[C@@H]1C [Methyldigoxin],> 50 µM
9,CCCCCCCCCCCCN1CCCCCC1=O [Laurocapram],45.3 µM
10,CCN(Cc1c(F)cccc1Cl)c1c([N+](=O)[O-])cc(C(F)(F)F)cc1[N+](=O)[O-] [Flumetralin],> 90 µM
11,COc1cc([S+](C)[O-])ccc1-c1nc2ncccc2[nH]1 (stereo not drawn) [Sulmazole],> 50 µM
12,CCOc1ccc(NC(N)=O)cc1 [Dulcin],> 90 µM
13,C[C@H](O)[C@H](O)[C@H]1CNc2nc(N)[nH]c(=O)c2N1 [(6R)-Tetrahydrobiopterin dihydrochloride],> 50 µM
14,Nc1ncnc(Nc2ccc(Cl)cc2)n1 [Chlorazanil],> 50 µM
15,CCCCCCCCCCCCN1CCCC1=O [1-Dodecyl-2-pyrrolidinone],49.6 µM
16,CC(=O)O[C@H]1C[C@H](O[C@H]2[C@@H](O)C[C@H](O[C@H]3[C@@H](O)C[C@H](O[C@H]4CC[C@@]5(C)[C@H](CC[C@@H]6[C@@H]5CC[C@]5(C)[C@@H](C7=CC(=O)OC7)[C@@H](O)C[C@]65O)C4)O[C@@H]3C)O[C@@H]2C)O[C@H](C)[C@H]1O[C@@H]1O[C@H](CO)[C@@H](O)[C@H](O)[C@H]1O [Lanatoside B],> 50 µM
17,CCCOc1ccc2nc(NC(=O)OC)sc2c1 [Tioxidazole],2.38 µM
18,O=[N+]([O-])c1ccc2c(c1)Cc1ccccc1-2 [2-Nitrofluorene],> 90 µM
19,CCCOC(=O)CC [Propyl propionate],> 90 µM
20,CC(C)c1ccc(S(=O)(=O)O)cc1 [4-Isopropylbenzenesulfonic acid],> 90 µM
21,CC1(C)[C@H](C=C(Cl)Cl)[C@H]1C(=O)OCc1c(F)c(F)cc(F)c1F [Transfluthrin],> 50 µM
22,C[C@@H]1CC[C@H]2[C@@H](C)C(=O)O[C@@H]3O[C@@]4(C)CC[C@@H]1[C@]32OO4 [Artemisinin],4.4 µM
23,CCCCCOC(=O)Nc1nc(=O)n([C@@H]2O[C@H](C)[C@@H](O)[C@H]2O)cc1F [Capecitabine],> 50 µM
24,CC(C)(C#N)c1cc(Cn2cncn2)cc(C(C)(C)C#N)c1 [Anastrozole],> 30 µM
25,O=C(O)c1ccc(S(=O)(=O)O)cc1C(=O)O [4-Sulfophthalic acid],> 90 µM

row,Compound,CC50 at 24 h
1,"Cc1cc(Cc2ccc(N)c(C)c2)ccc1N [4,4'-Diamino-3,3'-dimethyldiphenylmethane]",> 90 µM
2,CCOC(=O)COc1ccc2c(=O)cc(-c3ccccc3)oc2c1 [Efloxate],> 50 µM
3,"C[N+](C)(C)CCCCCC[N+](C)(C)C [N,N,N,N',N',N'-Hexamethylhexane-1,6-diaminium]",> 50 µM
4,CCCC[N+]1(C)[C@@H]2CC(OC(=O)[C@H](CO)c3ccccc3)C[C@H]1[C@@H]1O[C@@H]12 (stereo partly drawn) [Butylscopolammonium bromide],> 50 µM
5,"Oc1cc(Cl)c(Cl)c(Cl)c1 [3,4,5-Trichlorophenol]",29.9 µM
6,Cc1ccc2c(c1)C(=O)OC2=O [4-Methylphthalic anhydride],> 90 µM
7,CCCCCCCCSCC [Ethyl octyl sulfide],> 90 µM
8,N#CC(C#N)=C(C#N)C#N [Tetracyanoethylene],> 100 µM
9,CN1CCN(c2ccccc2/C=C2\SCCN(c3ccc(Cl)c(Cl)c3)C2=O)CC1 [Elzasonan],8.33 µM
10,CC(CNC(=O)c1cccnc1)NC(=O)c1cccnc1 (stereo not drawn) [Nicaraven],> 50 µM
11,CCN(CC)CCNC(=O)c1c(C)[nH]c(/C=C2\C(=O)Nc3ccc(F)cc32)c1C [Sunitinib malate],20.1 µM
12,CC1=CC(=O)CCC1 [3-Methyl-2-cyclohexen-1-one],> 90 µM
13,C=CC(=O)OCCOc1ccccc1 [2-Phenoxyethyl acrylate],> 90 µM
14,COc1ccc2c(c1)c(CC(=O)OCC(=O)O)c(C)n2C(=O)c1ccc(Cl)cc1 [Acemetacin],> 50 µM
15,CCOC(=O)C(C)(C)C [Ethylpivalate],> 90 µM
16,S=C=NCc1ccccc1 [Benzyl isothiocyanate],> 90 µM
17,C#C[C@]1(OC(C)=O)CC[C@H]2[C@@H]3CCC4=CC(=O)CC[C@@H]4[C@H]3CC[C@@]21C [Norethindrone acetate],> 50 µM
18,C#C[C@]1(O)CC[C@H]2[C@@H]3CCC4=CC(=O)CC[C@]4(C)[C@H]3CC[C@@]21C [Ethisterone],> 90 µM
19,"Cc1cc(C)c(C)c(O)c1 [2,3,5-Trimethylphenol]",> 90 µM
20,"O=C(CC(=O)C(F)(F)F)c1ccccc1 [4,4,4-Trifluoro-1-phenyl-1,3-butanedione]",> 90 µM
21,c1ccc2c(c1)ccc1ccccc12 [Phenanthrene],> 90 µM
22,C/C=C/c1ccc(OCC)c(O)c1 [trans-2-Ethoxy-5-(1-propenyl)phenol],> 90 µM
23,O=P(O)(O)CP(=O)(O)O [Medronic acid],> 50 µM
24,C=CCn1cc[n+](C)c1 [1-Allyl-3-methylimidazolium chloride],> 90 µM

# Same assay, conditions: rat, gh3-tre-luc cells, AC50 (uM) modified / 1000, Tox21_110001=Tox21_110149; viability, 1 nM T3 present, 24 h
row,Compound,CC50 at 24 h
1,CCCCc1ccc(C(=O)O)nc1 [Fusaric acid],> 50 µM

# Same assay, conditions: rat, gh3-tre-luc cells, AC50 (uM) modified / 1000, Tox21_110001=Tox21_112447; viability, 1 nM T3 present, 24 h
row,Compound,CC50 at 24 h
1,Cc1ccccc1-n1c(CF)nc2ccc(N)cc2c1=O [Afloqualone],> 50 µM

# Same assay, conditions: rat, gh3-tre-luc cells, AC50 (uM) modified / 1000, Tox21_110001=Tox21_200234; viability, 1 nM T3 present, 24 h
row,Compound,CC50 at 24 h
1,O=C=NC1CCCCC1 [Isocyanatocyclohexane],> 90 µM

# Same assay, conditions: rat, gh3-tre-luc cells, AC50 (uM) modified / 1000, Tox21_110001=Tox21_201036; viability, 1 nM T3 present, 24 h
row,Compound,CC50 at 24 h
1,OCCBr [2-Bromo-1-ethanol],> 90 µM

# Same assay, conditions: rat, gh3-tre-luc cells, AC50 (uM) modified / 1000, Tox21_110001=Tox21_201361; viability, 1 nM T3 present, 24 h
row,Compound,CC50 at 24 h
1,"C=CC(Cl)CCl (stereo not drawn) [3,4-Dichloro-1-butene]",> 90 µM

# Same assay, conditions: rat, gh3-tre-luc cells, AC50 (uM) modified / 1000, Tox21_110001=Tox21_202415; viability, 1 nM T3 present, 24 h
row,Compound,CC50 at 24 h
1,Oc1ccccc1-c1ccccc1 [2-Phenylphenol],> 90 µM

# Same assay, conditions: rat, gh3-tre-luc cells, AC50 (uM) modified / 1000, Tox21_110001=Tox21_302237; viability, 1 nM T3 present, 24 h
row,Compound,CC50 at 24 h
1,"Cc1c([N+](=O)[O-])cc2c(c1[N+](=O)[O-])C(C)(C)CC2(C)C [1,1,3,3,5-Pentamethyl-4,6-dinitro-2,3-dihydro-1H-indene]",74.8 µM
